Source: PMC4102788, “Linking off-target kinase pharmacology to the differential cellular effects observed among PARP inhibitors” (Oncotarget, 2014)

Legend:
[1] = molecular target: T1, human PIM2 kinase (Homo sapiens, UniProt Q9P1W9); assay: Human Pim2 kinase in vitro inhibition assay (Cerep, LANCE/FRET); assay type: biochemical
T1 construct: purchased Cerep (CRO that ran the assay) 2920 (745-P2); host or cells: insect cells
From the text: (§1) Rucaparib, veliparib and olaparib were purchased from Selleckchem. Kinase in vitro assays were perfomed at Cerep (www.cerep.fr) by measuring the phosphorylation of appropriate peptide substrates by human recombinant enzymes and using FRET as a detection method (a detailed description of each kinase assay is available in online supplementary data).
Human Pim1 and Pim2 kinase in vitro inhibition assays
All details for the Pim1 and Pim2 in vitro assays can be consulted in the Cerep […]
http://www.cerep.fr/cerep/users/pages/catalog/Affiche_CondExp_Test.asp?test=2919, http://www.cerep.fr/cerep/users/pages/catalog/Affiche_CondExp_Test.asp?test=2920.
Evaluation of the effects of compounds on the activity of the human Pim1 and Pim2 kinases were quantified by measuring the phosphorylation of the substrate Ulight- […]
([…]) and ATP (30 µM for Pim1 and 3 µM for Pim2), and the mixture is incubated for 60 min at room temperature. […] After 60 more min, the fluorescence transfer is measured at λex=337 nm, λem=620 nm and λem=665 nm using a microplate reader (Envision, Perkin Elmer).
The enzyme activity is determined by dividing the signal measured at λem=665 nm by that measured at λem=620 nm (ratio). The results are expressed as a percent inhibition of the control enzyme activity. […]

[2] = molecular target: T2, human CDK9 kinase (Homo sapiens, UniProt P50750); assay: Human CDK9 kinase in vitro inhibition assay (Cerep, LANCE); assay type: biochemical; settings: human recombinant enzyme, 10 µM ATP
T2 construct: purchased Cerep (CRO that ran the assay) 2912 (781-cdk9); host or cells: Sf9 cells
T2 sequence (P50750 whole entry): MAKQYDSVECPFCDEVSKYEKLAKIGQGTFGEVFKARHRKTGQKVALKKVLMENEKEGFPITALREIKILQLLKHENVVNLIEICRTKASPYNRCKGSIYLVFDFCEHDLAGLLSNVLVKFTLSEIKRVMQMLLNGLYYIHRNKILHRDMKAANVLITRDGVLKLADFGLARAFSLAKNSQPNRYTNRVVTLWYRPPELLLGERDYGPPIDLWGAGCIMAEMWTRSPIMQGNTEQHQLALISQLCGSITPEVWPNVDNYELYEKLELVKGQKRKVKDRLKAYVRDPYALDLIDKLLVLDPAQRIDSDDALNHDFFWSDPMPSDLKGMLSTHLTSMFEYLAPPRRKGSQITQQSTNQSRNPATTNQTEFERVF
T2 sequence (O60563 whole entry partner): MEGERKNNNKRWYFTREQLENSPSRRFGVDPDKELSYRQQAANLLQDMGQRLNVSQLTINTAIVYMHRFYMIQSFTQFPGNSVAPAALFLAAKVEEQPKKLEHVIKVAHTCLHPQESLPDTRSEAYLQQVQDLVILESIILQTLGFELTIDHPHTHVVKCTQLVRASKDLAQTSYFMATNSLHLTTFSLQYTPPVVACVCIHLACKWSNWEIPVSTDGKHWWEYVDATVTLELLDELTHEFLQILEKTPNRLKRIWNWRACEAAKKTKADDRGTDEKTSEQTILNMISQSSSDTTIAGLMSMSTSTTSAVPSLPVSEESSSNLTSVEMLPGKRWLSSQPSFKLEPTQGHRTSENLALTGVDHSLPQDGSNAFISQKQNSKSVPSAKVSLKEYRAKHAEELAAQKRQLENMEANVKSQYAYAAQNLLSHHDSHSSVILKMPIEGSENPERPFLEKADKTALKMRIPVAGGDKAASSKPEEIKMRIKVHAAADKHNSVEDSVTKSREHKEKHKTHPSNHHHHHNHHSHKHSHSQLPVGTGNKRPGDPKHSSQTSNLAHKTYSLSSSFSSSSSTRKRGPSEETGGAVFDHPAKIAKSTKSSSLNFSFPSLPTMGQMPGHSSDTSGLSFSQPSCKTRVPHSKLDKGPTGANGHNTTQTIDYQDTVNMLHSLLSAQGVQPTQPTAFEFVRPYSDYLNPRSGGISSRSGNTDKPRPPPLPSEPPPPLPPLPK
From the text: as §1
Human CDK9 kinase in vitro inhibition assay
All details for the CDK9 in vitro assay can be consulted in the Cerep Catalogue available online under references 2912 (781-cdk9): http://www.cerep.fr/cerep/users/pages/catalog/Affiche_CondExp_Test.asp?test=2912 Evaluation of the effects of compounds on the activity of the human CDK9 quantified by measuring the phosphorylation of the substrate Ulight- […]
mixture is incubated for 90 min at room temperature. […] After 60 more min, the fluorescence transfer is measured at λex=337 nm, λem=620 nm and λem=665 nm using a microplate reader (Envision, Perkin Elmer). The enzyme activity is determined by dividing the signal measured at λem=665 nm by that measured at λem=620 nm (ratio). The results are expressed as a percent inhibition of the control enzyme activity. The standard inhibitory reference compound is staurosporine, which is tested in each experiment at several concentrations to obtain an inhibition curve from which its IC50 value is calculated. […]

T1 sequence (Q9P1W9 whole entry): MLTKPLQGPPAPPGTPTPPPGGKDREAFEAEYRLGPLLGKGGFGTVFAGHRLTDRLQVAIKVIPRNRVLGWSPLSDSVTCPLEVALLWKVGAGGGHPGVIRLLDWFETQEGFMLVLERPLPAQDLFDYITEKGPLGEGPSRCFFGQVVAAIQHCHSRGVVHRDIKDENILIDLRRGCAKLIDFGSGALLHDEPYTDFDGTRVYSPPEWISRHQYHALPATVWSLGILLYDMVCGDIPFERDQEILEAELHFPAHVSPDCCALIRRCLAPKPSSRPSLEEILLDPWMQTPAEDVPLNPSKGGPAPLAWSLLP

Compound CNCc1ccc(-c2[nH]c3cc(F)cc4c3c2CCNC4=O)cc1 [rucaparib] has an IC50 [1] of 7.7 µM and an IC50 [2] of 2.7 µM.
